From article PMC10363080, “Modulatory Effect of Pyrus pyrifolia Fruit and its Phenolics on Key Enzymes against Metabolic Syndrome: Bioassay-Guided Approach, HPLC Analysis, and In Silico Study” (Plant Foods for Human Nutrition (Dordrecht, Netherlands), 2023) come the findings set out here.

In general, IC50 refers to the concentration that gives 50% inhibition.

For assay [1], the target named is T1, pancreatic α-amylase (Sus scrofa, UniProt P00690).
T1 construct: pancreatic α-amylase (ex -porcine pancreas, EC 3.2.1.1, Sigma); purchased Sigma; host or cells: porcine pancreas
T1 sequence (P00690 16-511): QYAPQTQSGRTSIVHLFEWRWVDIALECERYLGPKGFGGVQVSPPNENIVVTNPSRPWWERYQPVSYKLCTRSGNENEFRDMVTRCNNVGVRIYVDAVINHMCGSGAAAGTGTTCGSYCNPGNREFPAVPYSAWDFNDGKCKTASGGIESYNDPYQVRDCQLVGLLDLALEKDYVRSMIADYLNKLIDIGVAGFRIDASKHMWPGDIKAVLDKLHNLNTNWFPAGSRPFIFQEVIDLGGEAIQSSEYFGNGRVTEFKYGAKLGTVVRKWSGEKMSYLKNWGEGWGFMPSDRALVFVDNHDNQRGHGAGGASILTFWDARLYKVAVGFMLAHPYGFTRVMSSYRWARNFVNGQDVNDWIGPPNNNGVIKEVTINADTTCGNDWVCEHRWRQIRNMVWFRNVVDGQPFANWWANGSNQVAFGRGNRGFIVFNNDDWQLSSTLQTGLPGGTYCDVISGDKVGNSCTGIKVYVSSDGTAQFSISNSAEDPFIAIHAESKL
Put plainly: α-Amylase inhibitory activity (starch substrate). The assay is classed as biochemical, porcine. The settings on record: isolated compounds, Table S7; read-out: Inhibition (IC50) α-Amylase. How it is done:
(§1) Phenolic acids and flavonoids used in HPLC analysis as well as all other reagents for biological investigations were obtained from Sigma Chemical Company […]
(§2) Inhibitory activity against key enzymes related to metabolic syndrome (MS) All assays were performed in 96-well plates. Stock solutions of the extract (100 mg/mL), fractions (100 mg/mL), and isolated compounds (1000 µM) were prepared. Tested samples that exceeded […]
(§3) inhibitory concentration (IC50). The percentage of enzyme inhibition was calculated according to […]
(§4) % Inhibition = (A−B) − (C−D) x 100 […]
α-Amylase inhibitory activity
α-Amylase inhibition assays were performed according to a previously described method. The tested samples we re incubated with pancreatic α-amylase (ex -porcine pancreas, EC 3.2.1.1, Sigma) followed by the addition of starch and iodine -potassium iodide solution for colo r development.
Starch [50 μL, 1% phosphate-buffered saline (PBS)] was mixed as substrate with 13 U mL−1 pancreatic α-amylase prepared in PBS, and 50 μL of test solution. A blank was performed using PBS. To initiate the reaction, the enzyme was added to the assay solution after being pre-incubated separately at 37 °C in a water bath for 10 min. Dinitrosalicylic acid reagent (1 mL) was added and […]
heated at 85 °C for 15 min. Then, it was cooled to room temperature and distilled water (1 mL) […]
was added. […] The absorbance was recorded at 540 nm.
Pancreatic lipase inhibitory activity […]

Assay [2] addresses T2, Recombinant renin (Homo sapiens, UniProt P00797).
T2 construct: purchased BPS Bioscince
T2 sequence (P00797 67-406): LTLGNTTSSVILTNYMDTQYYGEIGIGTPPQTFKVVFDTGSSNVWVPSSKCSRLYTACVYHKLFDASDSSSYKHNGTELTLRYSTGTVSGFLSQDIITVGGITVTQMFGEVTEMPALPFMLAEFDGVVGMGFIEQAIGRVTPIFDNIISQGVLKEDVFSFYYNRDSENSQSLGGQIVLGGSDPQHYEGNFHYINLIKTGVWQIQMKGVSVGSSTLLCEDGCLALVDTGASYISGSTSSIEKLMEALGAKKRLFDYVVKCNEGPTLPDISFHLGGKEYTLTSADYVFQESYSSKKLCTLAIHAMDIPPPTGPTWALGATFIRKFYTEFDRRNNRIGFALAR
Description: Renin inhibitory activity (renin-inhibitor screening assay kit). In kind it is biochemical. Conditions: isolated compounds, Table S7; read-out: Inhibition (IC50) Renin (converted). The method, then:
all of analytical grade. […]
as §1, §2, §3, §4
Renin inhibitory activity
The renin inhibitory activity was examined according to a previously described method using renin-inhibitor screening assay kit (BPS Bioscince, San Diego, CA, USA) and quinapril as a reference drug. Recombinant renin enzyme (50 μL) was dissolved in 50-mM Tris-HCl buffer (pH 8.0) and 100-mM NaCl (assay buffer) and stored at –80°C for further analysis. Twenty μL of renin substrate (A500 μM in DMSO), 150 μL of assay buffer, and 10 μL of each sample were used to prepare test solutions (10mg/ml in methanol). The blank samples were made using 10 μL of the sample, 20 μL of the substrate, and 160 μL of assay buffer. The positive control samples were created using 10 μL of methanol, 20 μL of substrate, and 150 μL of assay buffer. The positive control and tested samples were combined with 10 μL of the renin solution for the assay in order to catalyze the reaction. After that, the reaction mixture was incubated for 45 minutes at 37 °C.
The fluorescence generated at the 340 nm excitation and 490 nm emission wavelengths was measured using a microplate reader.
Xanthine oxidase (XO) inhibitory activity
Xanthine oxidase (XO) inhibitory potential was carried out according to a previous designed procedure using xanthine oxidase (XO, EC 1.17.3.2; Biovision, USA). Allopurinol was applied as a reference drug. Immediately prior to use, a mixture was made up of 50 μL of sample solution, 35 μL of phosphate buffer (70 mM, pH = 7.5), and 30 μL of new enzyme solution (0.01 units/mL in the same buffer). The reaction was started by adding 60 μL of the substrate solution (150 μM xanthine in the same buffer) following a pre-incubation at 25 °C for 15 minutes. After that, the mixture was incubated at 25 °C for 30 min. After adding 25 μL of 1 M HCl to terminate the reaction, the absorbance was measured at 290 nm with a microplate reader as previously

The nature of assay [3]: ABTS radical scavenging antioxidant assay. On the set-up: ABTS AA (%) antioxidant activity percentage: concentration or dose not given beside the values. Conditions: for ABTS antioxidant activity: Trolox equivalent per gram of sample, mean ± SD, n=3; for ABTS AA (%) antioxidant activity percentage: compared to ascorbic acid (=100). How it is done: (§5) all of analytical grade. An electrothermal 9100 (UK) was used for the determination of melting points (uncorrected). A Jenway model 6800 spectrophotometer was utilized for recording UV spectra. A Tecan, microplate reader, ((Infinite F50, Switzerland)) was used to measure the absorbances. A Bruker NMR system was used for 1H-NMR (400 MHz) and 13C-NMR (100 MHz).
(§6) The NMR spectra were determined in CD3OH and DMSO-d6. Chemical shifts are given in δ (ppm) relative to the internal standard TMS. Phenolic acids and flavonoids used in HPLC analysis as well as all other reagents for biological investigations were obtained from Sigma Chemical Company […]
(§7) Determination of the antioxidant activity
(§8) 2,2`-Azino-bis(3-ethylbenzothiazoline-6-sulfonic acid) (ABTS), ferric reducing antioxidant power (FRAP), and oxygen radical absorbance capacity (ORAC) assays were performed according to the previously published procedures. Ascorbic acid was used as a reference antioxidant […]
drug. […]

Assay [4] in a line: Ferric reducing antioxidant power (FRAP) assay. More on the design: FRAP AA (%) antioxidant activity percentage: concentration or dose not given beside the values. Conditions: for FRAP antioxidant activity: Trolox equivalent per gram of sample, mean ± SD, n=3; for FRAP AA (%) antioxidant activity percentage: compared to ascorbic acid (=100). The method, then:
as §5, §6, §7, §8
drug. […]

Assay [5] is described as follows: Oxygen radical absorbance capacity (ORAC) assay. The settings on record: for ORAC antioxidant activity: Trolox equivalent per gram of sample, mean ± SD, n=3; for ORAC AA (%) antioxidant activity percentage: compared to ascorbic acid (=100). The method, then: as §5, §6, §7, §8
drug. […]

`O=C(/C=C/c1ccc(O)c(O)c1)O[C@@H]1C[C@](O)(C(=O)O)C[C@@H](O)[C@H]1O` [P4, chlorogenic acid]: the results for the IC50 in assay [1] and in assay [2] were 3.78 ± 0.19 µM and 47.8 ± 0.25 µM, respectively.
With `COc1cc(-c2oc3cc(O)cc(O)c3c(=O)c2O[C@@H]2O[C@H](CO)[C@@H](O)[C@H](O)[C@H]2O)ccc1O` [P3, isorhamnetin-3-O-β-D-glucopyranoside], in assay [3], the ABTS antioxidant activity was 229.71±0.38 μM TE/g and the “ABTS AA (%) antioxidant activity percentage” value amounted to 79.82%. Also, in assay [4], the FRAP antioxidant activity was determined as 125.08±0.72 μM TE/g and the “FRAP AA (%) antioxidant activity percentage” value was found to be 80.58%. Moreover, in assay [5], the ORAC antioxidant activity worked out at 320.78±0.55 μM TE/g and the “ORAC AA (%) antioxidant activity percentage” value turned out to be 82.21%. The IC50 in assay [1] was 2.31 ± 0.87 µM. Moreover, the concentration for half-maximal inhibition (IC50) in assay [2] was 34.8 ± 0.79 µM.
With `C[C@@H]1O[C@@H](OC[C@H]2O[C@@H](Oc3c(-c4ccc(O)c(O)c4)oc4cc(O)cc(O)c4c3=O)[C@H](O)[C@@H](O)[C@@H]2O)[C@H](O)[C@H](O)[C@H]1O` [P1, rutin], in assay [3], the ABTS antioxidant activity was 180.29±1.08 μM TE/g and the “ABTS AA (%) antioxidant activity percentage” value worked out at 62.64%. Further, in assay [4], the FRAP antioxidant activity stood at 99.28 ±0.98 μM TE/g and the “FRAP AA (%) antioxidant activity percentage” value stood at 63.96%. Besides, in assay [5], the ORAC antioxidant activity was determined as 266.30±0.75 μM TE/g and the “ORAC AA (%) antioxidant activity percentage” value worked out at 68.25%. Moreover, the IC50 in assay [1] was determined as 3.54 ± 0.21 µM. For the same compound, the IC50 in assay [2] is 40.8 ± 1.3 µM.
As to `O=c1c(O[C@@H]2O[C@H](CO)[C@@H](O)[C@H](O)[C@H]2O)c(-c2ccc(O)c(O)c2)oc2cc(O)cc(O)c12` [P2, isoquercitrin], in assay [3], the ABTS antioxidant activity was determined as 240.75±0.28 μM TE/g and the “ABTS AA (%) antioxidant activity percentage” value is recorded as 83.66%. In assay [4], the FRAP antioxidant activity worked out at 137.27±0.53 μM TE/g and the “FRAP AA (%) antioxidant activity percentage” value worked out at 88.44%. In addition, in assay [5], the ORAC antioxidant activity came out at 346.28±0.29 μM TE/g and the “ORAC AA (%) antioxidant activity percentage” value came out at 88.74%. In addition, in assay [1], the IC50 came to 1.54 ± 0.18 µM. The IC50 in assay [2] is 24.8 ± 1.3 µM.
For `O=C(O)/C=C/c1ccccc1` [P6, cinnamic acid], the figures for the ABTS antioxidant activity in assay [3] and in assay [3] (listed as Cinnamic acid (P6)) were 250.28±0.21 μM TE/g and 250.28 ± 0.21 μM TE/g, respectively. In assay [3], the “ABTS AA (%) antioxidant activity percentage” value worked out at 86.97%. The FRAP antioxidant activity was found to be 141.26±0.91 μM TE/g in assay [4] and 141.26 ± 0.91 μM TE/g in assay [4] (listed as Cinnamic acid (P6)). The “FRAP AA (%) antioxidant activity percentage” value in assay [4] is 91.01%. Further, the values for the ORAC antioxidant activity in assay [5] and in assay [5] (listed as Cinnamic acid (P6)) were 362.55±1.20 μM TE/g and 362.55 ± 1.20 μM TE/g, respectively. Besides, in assay [5], the “ORAC AA (%) antioxidant activity percentage” value was determined as 92.91%. Moreover, the IC50 in assay [1] was 1.02 ± 0.63 µM; in assay [2] it was 20.7 ± 0.8 µM.
